The results in this text go back to patent US4704396A, “Phenacyl esters of 1-substituted-6-(substituted and unsubstituted) dihydrolysergic acids useful as 5HT receptor antagonists” (Eli Lilly and Company, priority 1985, dated 1987).

Counter-ions that a name gives are not always drawn.

T1 sequence (P14842 whole entry): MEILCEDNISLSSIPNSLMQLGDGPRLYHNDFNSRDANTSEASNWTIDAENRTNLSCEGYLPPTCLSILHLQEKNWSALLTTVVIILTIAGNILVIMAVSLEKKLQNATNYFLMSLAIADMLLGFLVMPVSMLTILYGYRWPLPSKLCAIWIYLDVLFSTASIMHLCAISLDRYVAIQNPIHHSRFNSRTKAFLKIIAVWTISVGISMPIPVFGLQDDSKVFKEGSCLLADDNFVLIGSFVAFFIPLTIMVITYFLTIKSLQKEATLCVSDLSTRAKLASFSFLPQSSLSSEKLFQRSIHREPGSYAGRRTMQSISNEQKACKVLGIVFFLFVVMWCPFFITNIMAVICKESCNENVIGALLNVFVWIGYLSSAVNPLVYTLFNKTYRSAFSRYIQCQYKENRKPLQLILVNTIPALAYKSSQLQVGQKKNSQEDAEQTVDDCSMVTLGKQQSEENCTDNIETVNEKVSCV

The assay addresses T1, 5HT2 receptors (Rattus norvegicus, UniProt P14842).
T1 construct: from tissue; host or cells: external jugular vein of male Wistar rats
Description: Apparent dissociation constants (KB) against serotonin contraction in rat jugular vein. The format is cell-based. To be noted: serotonin agonist, antagonist incubated one hour, read-out: 5HT2 -Log Kb ± S.E. (converted). The protocol: An initial optimum resting force of 1 and 4 g was applied to the jugular veins and aorta, respectively. […] Exp. Ther., 205, 400 (1978). Alpha receptor antagonist activity was evaluated in the aorta.
Usually Kb stands for the affinity of an antagonist, worked out from how it opposes an agonist. As for `COc1ccc(C(=O)COC(=O)[C@@H]2C[C@@H]3c4cccc5c4c(cn5C(C)C)C[C@H]3N(C)C2)cc1` [R^3=H R^4=H R^10=p-OCH3 maleate, p-Methoxyphenacyl 1-isopropyl-9,10-dihydrolysergate maleate], the Kb was 1.29 nM.

As for `CC(C)n1cc2c3c(cccc31)[C@H]1C[C@@H](C(=O)OCC(=O)c3ccccc3)CN(C)[C@@H]1C2` [R^3=H R^4=H R^10=H maleate.H2 O, phenacyl 1-isopropyl-9,10-dihydrolysergate maleate monohydrate], the Kb is 15.1 nM.

On to `CC(C)n1cc2c3c(cccc31)[C@H]1C[C@@H](C(=O)OCC(=O)c3ccc(Cl)cc3)CN(C)[C@@H]1C2` [R^3=H R^4=H R^10=p-Cl maleate, p-Chlorophenacyl 1-isopropyl-9,10-dihydrolysergate maleate], for which the Kb was 34.7 nM.

For the compound `CC(C)n1cc2c3c(cccc31)[C@H]1C[C@@H](C(=O)OCC(=O)c3ccc(O)cc3)CN(C)[C@@H]1C2` [R^3=H R^4=H R^10=p-OH maleate.H2 O, p-Hydroxyphenacyl 1-isopropyl-9,10-dihydrolysergate maleate], the Kb was 0.138 nM.

With `CC(OC(=O)[C@@H]1C[C@@H]2c3cccc4c3c(cn4C(C)C)C[C@H]2N(C)C1)C(=O)c1ccc(O)cc1` (stereo partly drawn) [R^3=CH3 R^4=H R^10=p-OH maleate, α-Methyl-p-hydroxyphenacyl 1-isopropyl-9,10-dihydrolysergate maleate], the antagonist equilibrium constant (Kb) is 0.347 nM.

Consider `CC(OC(=O)[C@@H]1C[C@@H]2c3cccc4c3c(cn4C(C)C)C[C@H]2N(C)C1)C(=O)c1ccccc1` (mixture of isomers) [R^3=CH3 R^4=H R^10=H maleate, (±)-α-Methylphenacyl 1-isopropyl-9,10-dihydrolysergate maleate], for which the Kb was 4.57 nM.

Regarding `CC(C)n1cc2c3c(cccc31)[C@H]1C[C@@H](C(=O)OCC(=O)c3ccc(-c4ccccc4)cc3)CN(C)[C@@H]1C2` [R^3=H R^4=H R^10=p-phenyl maleate, 4-Phenylphenacyl 1-isopropyl-9,10-dihydrolysergate maleate], the Kb is 70.8 nM.

In the case of `CC(C)n1cc2c3c(cccc31)[C@H]1C[C@@H](C(=O)OC(C)(C)C(=O)c3ccccc3)CN(C)[C@@H]1C2` [R^3=CH3 R^4=CH3 R^10=H maleate, α,α-Dimethylphenacyl 1-isopropyl-9,10-dihydrolysergate maleate monohydrate], the Kb is 14.8 nM.
